Experimental data taken from ChEMBL document CHEMBL3045406, “Enantioselective Relieving Activity of α-Methylbenzylphenylureas toward Bensulfuron-methyl Injury to Rice (Oryza sativa)” (Biosci Biotechnol Biochem, 1999).

How the values were obtained:
[1] = tested on: Oryza sativa; assay: Relieving activity against bensulfuron-methyl induced injury to Oryza sativa (rice) assessed as growth rate at 0.1 uM (Rbv = 46 to 53%); format: functional
[2] = Hydrophobicity, log K of the compound; format: physicochemical; conditions: octanol/water
[3] = tested on: Oryza sativa; assay: Effect on Oryza sativa (rice) assessed as growth rate at 0.1 uM relative to control; format: organism-based; conditions: in vivo
[4] = tested on: Oryza sativa; assay: Safener indices, ratio of compound effect of Oryza sativa (rice) growth rate to relieving activity against bensulfuron-methyl induced injury to Oryza sativa growth rate at 10 uM
[5] = tested on: Oryza sativa; assay: Effect on Oryza sativa (rice) assessed as growth rate at 10 uM relative to control; format: organism-based; conditions: in vivo
[6] = tested on: Oryza sativa; assay: Relieving activity against bensulfuron-methyl induced injury to Oryza sativa (rice) assessed as growth rate at 10 uM (Rbv = 46 to 53%); format: functional
[7] = tested on: Oryza sativa; assay: Safener indices, ratio of compound effect of Oryza sativa (rice) growth rate to relieving activity against bensulfuron-methyl induced injury to Oryza sativa growth rate at 1 uM
[8] = tested on: Oryza sativa; assay: Relieving activity against bensulfuron-methyl induced injury to Oryza sativa (rice) assessed as growth rate at 1 uM (Rbv = 46 to 53%); format: functional
[9] = tested on: Oryza sativa; assay: Safener indices, ratio of compound effect of Oryza sativa (rice) growth rate to relieving activity against bensulfuron-methyl induced injury to Oryza sativa growth rate at 0.1 uM
[10] = tested on: Oryza sativa; assay: Effect on Oryza sativa (rice) assessed as growth rate at 1 uM relative to control; format: organism-based; conditions: in vivo

Row | SMILES | log K [2] | Activity [3] [%] | Activity [5] [%] | Activity [10] [%] | Activity [1] [%] | Ratio [4] | Activity [6] [%] | Ratio [7] | Activity [8] [%] | Ratio [9]
1 | C[C@@H](NC(=O)Nc1cc(F)ccc1F)c1ccccc1 | 0.464 | 100 | 92 | 100 | 54 | 57 | 77 | 34 | 67 | 7
2 | C[C@H](NC(=O)Nc1ccc(C(F)(F)F)cc1)c1ccccc1 | 0.537 | 94 | 94 | 94 | 67 | 86 | 93 | 72 | 85 | 36
3 | CCCCCc1ccc(NC(=O)N[C@@H](C)c2ccccc2)cc1 | 0.912 | 98 | 93 | 98 | 55 | 43 | 71 | 16 | 59 | 9
4 | C[C@H](NC(=O)Nc1cc(C(C)(C)C)ccc1C(C)(C)C)c1ccccc1 | 1.001 | 98 | 97 | 98 | 56 | 46 | 74 | 15 | 59 | 8
5 | C[C@@H](NC(=O)Nc1ccccc1C(C)(C)C)c1ccccc1 | 0.535 | 100 | 17 | 95 | 58 | 34 | 40 | 24 | 61 | 15
6 | C[C@H](NC(=O)Nc1cc(Cl)cc(Cl)c1)c1ccccc1 | 0.703 | 99 | 99 | 100 | 74 | 76 | 88 | 59 | 80 | 46
7 | C[C@H](NC(=O)Nc1cc(C(F)(F)F)cc(C(F)(F)F)c1)c1ccccc1 | 0.831 | 101 | 86 | 95 | 57 | 44 | 69 | 33 | 65 | 13
8 | C[C@@H](NC(=O)Nc1ccc(Br)cc1)c1ccccc1 | 0.488 | 100 | 87 | 95 | 53 | 76 | 86 | 55 | 77 | 5
9 | Cc1cc(F)ccc1NC(=O)N[C@H](C)c1ccccc1 | 0.356 | 100 | 94 | 100 | 54 | 48 | 74 | 9 | 57 | 3
10 | COc1cccc(NC(=O)N[C@@H](C)c2ccccc2)c1 | 0.277 | 101 | 99 | 99 | 65 | 94 | 97 | 70 | 86 | 22
11 | Cc1cccc(NC(=O)N[C@@H](C)c2ccccc2)c1 | 0.374 | 99 | 100 | 100 | 63 | 79 | 89 | 58 | 79 | 27
12 | CC(C)c1cccc(NC(=O)N[C@@H](C)c2ccccc2)c1 | 0.58 | 95 | 86 | 84 | 47 | 47 | 68 | 26 | 55 | 6
13 | C[C@H](NC(=O)Nc1ccccc1)c1ccccc1 | 0.28 | 101 | 90 | 98 | 67 | 63 | 80 | 58 | 80 | 30
14 | C[C@H](NC(=O)Nc1cccc(C(F)(F)F)c1)c1ccccc1 | 0.542 | 94 | 92 | 93 | 62 | 66 | 82 | 53 | 75 | 26
15 | CC(=O)c1ccccc1NC(=O)N[C@@H](C)c1ccccc1 | 0.432 | 100 | 96 | 97 | 53 | 50 | 73 | 35 | 65 | 9
16 | C[C@H](NC(=O)Nc1ccc(F)c(F)c1)c1ccccc1 | 0.398 | 99 | 98 | 100 | 57 | 64 | 82 | 41 | 70 | 14
17 | C[C@H](NC(=O)Nc1ccc(I)cc1)c1ccccc1 | 0.556 | 99 | 95 | 97 | 70 | 85 | 92 | 70 | 85 | 39

Continued, in another order:

Row | log K [2] | Activity [3] [%] | Activity [5] [%] | Activity [10] [%] | SMILES | Activity [1] [%] | Ratio [4] | Activity [6] [%] | Ratio [7] | Activity [8] [%] | Ratio [9]
18 | 0.76 | 100 | 28 | 32 | CCCCc1ccc(NC(=O)N[C@H](C)c2ccccc2)cc1 | 57 | 16 | 28 | 26 | 38 | 13
19 | 0.556 | 100 | 85 | 91 | C[C@@H](NC(=O)Nc1ccc(I)cc1)c1ccccc1 | 69 | 63 | 79 | 58 | 78 | 35
20 | 0.227 | 96 | 84 | 93 | CC(=O)c1ccc(NC(=O)N[C@H](C)c2ccccc2)cc1 | 49 | 65 | 79 | 27 | 59 | 4
21 | 0.415 | 99 | 92 | 97 | CCOC(=O)c1ccc(NC(=O)N[C@@H](C)c2ccccc2)cc1 | 76 | 86 | 92 | 76 | 87 | 53
22 | 0.646 | 100 | 99 | 100 | C[C@@H](NC(=O)Nc1cccc(Cl)c1Cl)c1ccccc1 | 59 | 78 | 89 | 58 | 80 | 14
23 | 0.211 | 109 | 93 | 101 | COc1ccc(NC(=O)N[C@H](C)c2ccccc2)cc1 | 53 | 56 | 78 | 7 | 58 | -11
24 | 0.64 | 98 | 87 | 89 | C[C@H](NC(=O)Nc1cc(C(F)(F)F)ccc1F)c1ccccc1 | 64 | 70 | 84 | 59 | 79 | 26
25 | 0.415 | 101 | 92 | 100 | CCOC(=O)c1ccc(NC(=O)N[C@H](C)c2ccccc2)cc1 | 56 | 79 | 89 | 56 | 78 | 11
26 | 0.487 | 99 | 93 | 96 | CC(C)c1ccccc1NC(=O)N[C@@H](C)c1ccccc1 | 46 | 15 | 52 | 7 | 48 | 1
27 | 0.577 | 98 | 86 | 96 | CC(C)c1ccc(NC(=O)N[C@@H](C)c2ccccc2)cc1 | 57 | 66 | 79 | 69 | 83 | 21
28 | 1.081 | 100 | 101 | 101 | CCCCCCc1ccc(NC(=O)N[C@H](C)c2ccccc2)cc1 | 52 | 22 | 61 | 9 | 54 | 6
